The record followed here is patent US6696457B1, “Morphinoid compounds” (SmithKline Beecham p.l.c., priority 1999, dated 2004).

Counter-ions that a name gives are not always drawn.

A short description of data set [1]: metabolic stability: intrinsic clearance in liver microsomes. In kind it is in vitro ADME, human. To be noted: 0.5 uM compound, 0.5 mg/ml microsomal protein, 37° C., 30 minutes, NADPH regenerating system. How it is done:
The metabolic stability of the compounds of the invention was determined in the following manner: the compounds were incubated (37° C.) at 0.5 uM over 30 minutes with microsomal protein (at a concentration of 0.5 mg/ml) and an NADPH regenerating system (cofactor); the incubation volume was made up to a total of 1 mL with 50 mM potassium phosphate buffer (pH 7.4).
All of the incubation components, apart from cofactor, were pre-incubated for approximately 5 minutes then the reaction was started by the addition of cofactor solution. 50 uL samples were removed from the incubation at 3 minute intervals and placed into 200 uL of acetonitrile (containing an Internal Standard) to precipitate the microsomal protein and terminate the reaction.
All samples were analysed by LC/MS for parent compound and Internal Standard (I.S) and the results calculated as peak area ratios: compound/I.S.
The peak area ratios were plotted against time and intrinsic clearance values were calculated from the fitted exponential decay curve:
CLint (mL/min/g liver)=(k·V·microsomal yield)/[protein] […]
k=rate constant from the exponential decay curve
V=incubation volume (1 mL) microsomal yield=standard microsomal protein yield from 1 g liver (52.5 mg) [protein]=protein concentration in each incubation (0.5 mg/mL); a solution containing 0.5 uM of the compound under study was incubated with 0.5 mg of liver microsomal protein over 30 min at 37° C. Samples were taken, protein precipitated with acetonitrile and centrifuged prior HPLC-MS analysis.
(Liver microsomes are vesicles of endoplasmic reticulum, rich in cytochrome P450 enzymes.)

A short description of data set [2]: in vivo clearance and absolute bioavailability.
Data set [3] deals with T1, human delta opioid receptor (h-DOR/CHO) (Homo sapiens, UniProt P41143).
T1 construct: expressed in transfected cells
Put plainly: cAMP bioassay: inhibition of forskolin-stimulated cAMP in h-DOR/CHO cells. Format: cell-based. The method, then:
The delta agonistlantagonist activity of the compounds of the present invention is determined in the cAMP bioassay in CHO cell lines stably expressing the human delta opioid receptor (h-DOR/CHO).
For the cAMP assay whole h-DOR/CHO cells were incubated with test compounds in Krebs-Ringer 200 mM, buffered with HEPES, containing (mM): NaCl (125), KCl (5), KH2PO4 (0.4), MgSO4 (1.2), CaCl2 (1.2), NaHCO3(25), glucos (12) and IBMX (1). Cells were treated with forskolin […] to stimulate cAMP synthesis.
The cAMP content was determined using a double antibody [^125I]-cAMp radioimmunoassay (Amersham RPA 509). The data were normalised to protein content.

T1 sequence (P41143 whole entry): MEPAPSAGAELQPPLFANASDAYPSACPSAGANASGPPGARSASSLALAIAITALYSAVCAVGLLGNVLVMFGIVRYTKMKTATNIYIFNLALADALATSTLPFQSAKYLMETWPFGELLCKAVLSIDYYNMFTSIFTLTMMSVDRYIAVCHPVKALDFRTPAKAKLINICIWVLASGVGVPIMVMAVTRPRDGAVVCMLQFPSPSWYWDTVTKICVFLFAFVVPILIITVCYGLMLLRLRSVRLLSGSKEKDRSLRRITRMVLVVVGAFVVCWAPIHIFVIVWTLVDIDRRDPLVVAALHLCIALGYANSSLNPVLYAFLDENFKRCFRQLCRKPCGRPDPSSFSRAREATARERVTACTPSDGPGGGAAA

The melting point is the temperature of the solid-liquid transition. With `Cc1c(C(=O)CC(C)C)[nH]c2c1C[C@@]1(O)[C@H]3Cc4ccccc4[C@@]1(CCN3)C2` [Example 7, [10R,4bR-(4b beta,9a beta)]-7-isobutylcarbonyl-8-methyl4b,5,9,9a,10,11-hexahydro-9a-hydroxy-(6H)-10,4b-(iminoethano)phenanthro[3,2-b]pyrrole], the melting point is 170 to 175 °C. For the same molecule, the “in vitro Clearance (human microsomes) CL” value in data set [1] was <0.6 ml/min/g liver.

For `Cc1c(C(=O)N(Cc2ccccc2)C(C)C)[nH]c2c1C[C@@]1(O)[C@H]3Cc4ccccc4[C@@]1(CCN3)C2` (as salt: hydrochloride) [Example 2, [10R,4bR-(4b beta,9a beta)]-7-[(N-benzyl-N-isopropyl)aminocarbonyl]-8-methyl-4b,5,9,9a, 10,11-hexahydro-9a-hydroxy-(6H)-10,4b-(iminoethano)phenanthro-[3,2-b]pyrrole], the melting point is > 250 °C.

As for “[10R,4bS-(4b beta,9a beta)]-7-(N-ethyl-N-phenyl)aminocarbonyl-8-methyl-4b,5,9,9a, 10,11-hexahydro-(6H)-10,4b-(iminoethano)phenanthro[3,2-b]pyrrole [Example 9]”, in data set [1], the “in vitro Clearance (human microsomes) CL” value is listed as 4.5 ml/min/g liver.

`CCN(CC)C(=O)c1[nH]c2c(c1C)C[C@@]1(O)[C@H]3Cc4ccccc4[C@@]1(CCN3)C2` [Example 3, [10R,4bR-(4b beta,9a beta)]-7-(N,N-diethyl)aminocarbonyl-8-methyl-4b,5,9,9a, 10,11-hexahydro-9a-hydroxy-(6H)-10,4b-(iminoethano)phenanthro[3,2-b]pyrrole]: in data set [1], the “in vitro Clearance (human microsomes) CL” value is 0.8 ml/min/g liver. The “in vivo Clearance CL” value in data set [2] worked out at 27 ± 2 mL/min/kg. Moreover, the “in vivo Absolute bioavailability F ipv” value in data set [2] (ipv) is 60 ± 7%.

Turning to `Cc1c(C(=O)N2CCc3ccccc3C2)[nH]c2c1CC1(O)C3Cc4ccccc4C1(CCN3)C2` (stereo not drawn) [Example 6, [10R,4bR-(4b beta,9a beta)]-7-(1,2,3,4-tetrahydroisoquinolin-2-yl)carbonyl-8-methyl-4b,5,9,9a, 10,11-hexahydro-9a-hydroxy-(6H)-1 0,4b-(iminoethano)phenanthro[3,2-b]pyrrole], the “in vitro Clearance (human microsomes) CL” value in data set [1] is <0.6 ml/min/g liver.

As usually defined, the IC50 is the concentration at which inhibition is half-maximal. Read a low IC50 as greater potency in that assay. In data set [3], `Cc1c(C(=O)N(Cc2ccccc2)C(C)C)[nH]c2c1C[C@@]1(O)[C@H]3Cc4ccccc4[C@@]1(CCN3)C2` [Example 2, [10R,4bR-(4b beta,9a beta)]-7-[(N-benzyl-N-isopropyl)aminocarbonyl]-8-methyl-4b,5,9,9a, 10,11-hexahydro-9a-hydroxy-(6H)-10,4b-(iminoethano)phenanthro-[3,2-b]pyrrole] came in with an IC50 of 1.15 nM. Also, in data set [3] (naltrindole 100 nM, h-DOR/CHO cells), the “antagonism of the agonist activity by the selective delta antagonist naltrindole” value is “completely antagonised”.

As for `CCN(Cc1ccccc1)C(=O)c1[nH]c2c(c1C)CC1(O)C3Cc4ccccc4C1(CCN3)C2` (stereo not drawn) [Example 5, [10R,4bR-(4b beta,9a beta)]-7-(N-benzyl-N-ethyl)aminocarbonyl-8-methyl-4b,5,9,9a, 10,11-hexahydro-9a-hydroxy-(6H)-10,4b-(iminoethano)phenanthro[3,2-b]pyrrole], in data set [1], the “in vitro Clearance (human microsomes) CL” value turned out to be 2.0 ml/min/g liver.

Consider `Cc1c2c(n(C)c1C(=O)N(Cc1ccccc1)C(C)C)CC13CCNC(Cc4ccccc41)C3(O)C2` (stereo not drawn) [Example 10, [10R,4bS-(4b beta,9a beta)]-7-(N-benzyl-N-isopropyl)aminocarbonyl-6,8-dimethyl-4b,5,9,9a, 10,11-hexahydro-9a-hydroxy-(6H)-10,4b-(iminoethano)-phenanthro[3,2-b]pyrrole], for which the “in vitro Clearance (human microsomes) CL” value in data set [1] worked out at 5.2 ml/min/g liver.

For `Cc1c(C(=O)N2CCc3ccccc3C2)[nH]c2c1CC1(O)C3Cc4ccccc4C1(CCN3C)C2` (stereo not drawn) [Example 21, [10R,4bR-(4b beta,9a beta)]-7-(1,2,3,4-tetrahydroisoquinolin-2-yl)carbonyl-8,14-dimethyl-4b,5,9,9a,10,11-hexahydro-9a-hydroxy-(6H)-10,4b-(iminoethano)phenanthro-[3,2-b]pyrrole], the “in vitro Clearance (human microsomes) CL” value in data set [1] worked out at 6.0 ml/min/g liver.

As to `CCN(C(=O)c1[nH]c2c(c1C)C[C@@]1(O)[C@H]3Cc4ccccc4[C@@]1(CCN3)C2)c1ccccc1` [Example 8, [10R,4bR-(4b beta,9a beta)]-7-[(N-phenyl-N-ethyl)aminocarbonyl]-4b,5,9,9a, 10,11-hexahydro-9a-hydroxy-(6H)-8-methyl-10,4(iminoethano)-phenanthro[3,2-b]pyrrole], the “in vitro Clearance (human microsomes) CL” value in data set [1] turned out to be 5.9 ml/min/g liver.

Consider `CCN(Cc1ccccc1)C(=O)c1c(C)c2c(n1C)CC13CCNC(Cc4ccccc41)C3C2` (stereo not drawn) [Example 11, [10R,4bS-(4b beta,9a beta)]-7-(N-ethyl-N-benzyl)aminocarbonyl-6,8-dimethyl-4b,5,9,9a,10,11-hexahydro-(6H)-10-,4b-(iminoethano)phenanthro[3,2-b]pyrrole], for which the “in vitro Clearance (human microsomes) CL” value in data set [1] was 13.0 ml/min/g liver.

Regarding “[10R,4bR-(4bb,9ab)]-7-(N,N-diisopropyl)aminocarbonyl-8,14-dimethyl4b,5,9,9a,10,11-hexahydro9a-hydroxy-(6H)-10,4b-(iminoethano)phenanthro[3,2-b]pyrrole. [Example 19]”, the “in vitro Clearance (human microsomes) CL” value in data set [1] was found to be 5.7 ml/min/g liver.

As for `Cc1c(C(=O)N(C(C)C)C(C)C)[nH]c2c1CC1(O)C3Cc4ccccc4C1(CCN3)C2` (stereo not drawn) [Example 1, [10R,4bR-(4b beta,9a beta)]-7-(N,N-diisopropyl)aminocarbonyl-8-methyl-4b,5,9,9a, 10,11-hexahydro-9a-hydroxy-(6H)-10,4b-(iminoethano)phenanthro[3,2-b]pyrrole], the “in vitro Clearance (human microsomes) CL” value in data set [1] came to 1.3 ml/min/g liver.

Regarding `Cc1c(C(=O)N(Cc2ccccc2)C(C)C)[nH]c2c1CC1C3Cc4ccccc4C1(CCN3)C2` (stereo not drawn) [Example 4, [10R,4bS-(4b beta,9a beta)]-7-(N-isopropyl-N-benzyl)aminocarbonyl-8-methyl-4b,5,9,9a, 10,11-hexahydro-(6H)-10-,4b-(iminoethano)phenanthro[3,2-b]pyrrole], the “in vitro Clearance (human microsomes) CL” value in data set [1] was found to be 3.3 ml/min/g liver.
